Results: patent publication US20150056269A1, “LIPOSOME COMPRISING AT LEAST ONE CHOLESTEROL DERIVATIVE” (TROPHOS, priority 2011, published 2015)
Values after ≈ are worked out from the molar mass of the structure shown. Read-outs that look alike come from different tables or passages of the source.

Tests used:
[1] = Suspensions of EPC liposomes containing the derivatives of formula (I): concentration in liposomes and particle size; type: physicochemical; conditions: for Particle size (nm): EPC liposomes containing the compound; for Concentration of compound in mg/mL in the liposomes: EPC liposomes, after extrusion and solvent removal
Protocol: A solution of lipids at 250 mg/mL is prepared by dissolving defined quantities of EPC and the compound of formula (I) in tert-butanol or a mixture of tert-butanol and absolute ethanol (v/v). This lipid solution is mixed at a certain temperature with aqueous buffer in order to obtain a final concentration of solvent of 15 to 17% and of product of formula (I) of […].
The large multilamellar vesicles are then extruded at a fixed temperature through 3 polycarbonate filters by 10 consecutive passes. The non encapsulated compound of formula (I) is removed on the filters.
The solvent is eliminated by filtration on membrane by washing with buffer in order to achieve a percentage of final solvent of the order of 0.4%.

[2] = Maximum solubility of the compounds of formula (I) in water and different solvents; type: physicochemical; conditions: for solubility: read-out: Maximum solubility (concentration)
Protocol: The maximum solubility of the compounds of formula (I) was tested in water and different solvents: […]

[3] = Liposome based on egg phospholipids
[4] = liposome based on egg phospholipids, oil or lipid

Row | Particle size (nm) [1] | Concentration of compound in mg/mL in the liposomes [1] | SMILES | other results
1 | 84.7 nm | 8.2 mg/mL | CCC[C@@]1(C)C(=NO)CC[C@H]2[C@@H]3CC[C@H]([C@H](C)CCCC(C)C)[C@@]3(C)CC[C@@H]21 [Compound 6, 3,5-seco-4-norcholestan-5-one oxime] | Maximum solubility (concentration) ([2]; Intralipid 10): 400 µg/mL; Maximum solubility (concentration) [2, 3]: 8200 µg/mL; Maximum solubility (concentration) ([2]; Water): 0.1 µg/mL
2 | 81.4 nm | 8.1 mg/mL | CC(C)CCCC(C)C1CCC2C3CCC(=NO)C(C)(CCCO)C3CCC12C (centres unmarked) [Compound 1, 3-hydroxy-3,5-seco-4-norcholestan-5-one oxime] | Maximum solubility (concentration) ([2]; (2-hydroxypropyl)-beta-cyclodextrin, 30% PBS buffer): 700 µg/mL; Maximum solubility (concentration) ([2]; Intralipid 10): 1000 µg/mL; Maximum solubility (concentration) ([2]; Intralipid 10/Solutol HS15/ethanol 92/3/5): 5000 µg/mL; Maximum solubility (concentration) [2, 3]: 30000 µg/mL; Maximum solubility (concentration) ([2]; Soya oil): 6000 µg/mL; Maximum solubility (concentration) ([2]; Water): 1 µg/mL
3 |  | 11.4 mg/mL | CC(C)CCCC(C)C1CCC2C3CCC(=O)C(C)(CCCO)C3CCC12C (centres unmarked) [Compound 8, 3-hydroxy-3,5-seco-4-norcholestan-5-one] | 
4 | 79.5 nm | 9.2 mg/mL | CC(C)CCCC(C)C1CCC2C3CCC(=NO)C(C)(CCC(C)(C)O)C3CCC12C (centres unmarked) [Compound 2, 3,3-dimethyl-3-hydroxy-3,5-seco-4-norcholestan-5-one oxime] | 

The next lines start with the compound.

Row | SMILES | Particle size (nm) [1] | Concentration of compound in mg/mL in the liposomes [1] | other results
5 | CC(C)CCC[C@@H](C)[C@H]1CC[C@H]2[C@@H]3CCC4=CC(=NO)CC[C@]4(C)[C@H]3CC[C@]12C [Compound 3, cholest-4-en-3-one oxime] | 88.9 nm | 12.4 mg/mL | solubility [2, 4]: 12400 µg/mL (≈ 31000 µM); solubility ([2]; water): 0.1 µg/mL (≈ 0.25 µM)
6 | CC(C)=CCC[C@@H](C)[C@H]1CC[C@H]2[C@@H]3CCC4=CC(=O)CC[C@]4(C)[C@H]3CC[C@]12C [Compound 9, cholest-4,24-dien-3-one] |  | 10.1 mg/mL | 
7 | CC(C)=CCC[C@@H](C)[C@H]1CC[C@H]2[C@@H]3CCC4=CC(=NO)CC[C@]4(C)[C@H]3CC[C@]12C [Compound 4, cholest-4,24-dien-3-one oxime] | 80.7 nm | 14.5 mg/mL | solubility ([2]; Intralipid 10, oil or lipid): 340 µg/mL (≈ 855 µM); solubility [2, 4]: 14500 µg/mL (≈ 36500 µM); solubility ([2]; water): 0.1 µg/mL (≈ 0.251 µM)
8 | CC(C)CCC[C@@H](C)[C@H]1CC[C@H]2[C@@H]3CCC4=C(F)C(=NO)CC[C@]4(C)[C@H]3CC[C@]12C [Compound 5, 4-fluoro-cholest-4-en-3-one oxime] | 79.1 nm | 3.6 mg/mL | 
9 | CC(C)CCC[C@@H](C)[C@H]1CC[C@H]2[C@@H]3CCC4=CC(=O)CC[C@]4(C)[C@H]3CC[C@]12C [Compound 7, cholest-4-en-3-one] |  | 12.1 mg/mL | 
